Organism: Rattus norvegicus
Assay: DrugMatrix - Regimen: Daily Repeat
Assay type: toxicity, organism-based, Sprague-Dawley
Parameters: regimen Daily Repeat, gender Male, age 6-8 weeks
Details: in vivo, po, route oral GAVAGE, vehicle 100 % WATER; for ABSOLUTE BASOPHIL / ABSOLUTE EOSINOPHIL / ABSOLUTE LYMPHOCYTE / ABSOLUTE MONOCYTE / ABSOLUTE SEGMENTED NEUTROPHIL / BASOPHIL / EOSINOPHIL / ERYTHROCYTE COUNT / HEMATOCRIT / HEMOGLOBIN / LEUKOCYTE COUNT / LYMPHOCYTE / MEAN CORPUSCULAR HEMOGLOBIN / MEAN CORPUSCULAR HEMOGLOBIN CONCENTRATION / MEAN CORPUSCULAR VOLUME / MONOCYTE / NEUTROPHIL / NUCLEATED RED BLOOD CELLS / PLATELET COUNT: tissue Blood; for ALANINE AMINOTRANSFERASE / ALBUMIN / ALKALINE PHOSPHATASE / ASPARTATE AMINOTRANSFERASE / BLOOD UREA NITROGEN / CARBON DIOXIDE / CHLORIDE / CHOLESTEROL / CREATINE PHOSPHOKINASE / CREATININE / GLUCOSE / LACTATE DEHYDROGENASE / LIPASE / PHOSPHORUS / POTASSIUM / SODIUM / TOTAL BILIRUBIN / TOTAL PROTEIN / URIC ACID: tissue Plasma
[1] = 0 mg/kg, 72 h, dose level Control, time 3 day
[2] = 0 mg/kg, 120 h, dose level Control, time 5 day
[3] = 25 mg/kg, 72 h, dose level Low, time 3 day

c1ccc([C@H]2CN3CCSC3=N2)cc1 [LEVAMISOLE]
ABSOLUTE BASOPHIL [1]: 0 CELLS/uL | ABSOLUTE EOSINOPHIL [1]: 20.17 CELLS/uL | ABSOLUTE LYMPHOCYTE [1]: 12371.67 CELLS/uL | ABSOLUTE MONOCYTE [1]: 166 CELLS/uL | ABSOLUTE SEGMENTED NEUTROPHIL [1]: 1292.17 CELLS/uL | BASOPHIL [1]: 0% | EOSINOPHIL [1]: 0.17% | ERYTHROCYTE COUNT [1]: 5.46 x10E6/uL | HEMATOCRIT [1]: 34.38% | HEMOGLOBIN [1]: 13.32 G/DL | LEUKOCYTE COUNT [1]: 13.85 x10E3/uL | LYMPHOCYTE [1]: 88.5% | MEAN CORPUSCULAR HEMOGLOBIN [1]: 24.42 pg | MEAN CORPUSCULAR HEMOGLOBIN CONCENTRATION [1]: 38.7 G/DL | MEAN CORPUSCULAR VOLUME [1]: 63.07 fL | MONOCYTE [1]: 1.17% | NEUTROPHIL [1]: 10.17% | NUCLEATED RED BLOOD CELLS [1]: 0.17 /100WBC | PLATELET COUNT [1]: 1193.5 x10E3/uL | ALANINE AMINOTRANSFERASE [1]: 54.5 u/L | ALBUMIN [1]: 4.02 G/DL | ALKALINE PHOSPHATASE [1]: 346.5 u/L | ASPARTATE AMINOTRANSFERASE [1]: 103.17 u/L | BLOOD UREA NITROGEN [1]: 16.5 mg/dL | CARBON DIOXIDE [1]: 29.83 mmol/L | CHLORIDE [1]: 99.5 MEQ/L | CHOLESTEROL [1]: 72.5 mg/dL | CREATINE PHOSPHOKINASE [1]: 532.5 u/L | CREATININE [1]: 0.18 mg/dL | GLUCOSE [1]: 168.5 mg/dL | LACTATE DEHYDROGENASE [1]: 536.5 u/L | LIPASE [1]: 11.17 u/L | PHOSPHORUS [1]: 11.48 mg/dL | POTASSIUM [1]: 5.95 MEQ/L | SODIUM [1]: 140.5 MEQ/L | TOTAL BILIRUBIN [1]: 0.18 mg/dL | TOTAL PROTEIN [1]: 5.77 G/DL | URIC ACID [1]: 1.42 mg/dL | ABSOLUTE BASOPHIL [2]: 0 CELLS/uL | ABSOLUTE EOSINOPHIL [2]: 22.83 CELLS/uL | ABSOLUTE LYMPHOCYTE [2]: 12202.83 CELLS/uL | ABSOLUTE MONOCYTE [2]: 158 CELLS/uL | ABSOLUTE SEGMENTED NEUTROPHIL [2]: 1283 CELLS/uL | BASOPHIL [2]: 0% | EOSINOPHIL [2]: 0.17% | ERYTHROCYTE COUNT [2]: 5.88 x10E6/uL | HEMATOCRIT [2]: 36.62% | HEMOGLOBIN [2]: 14.07 G/DL | LEUKOCYTE COUNT [2]: 13.67 x10E3/uL | LYMPHOCYTE [2]: 89.5% | MEAN CORPUSCULAR HEMOGLOBIN [2]: 23.95 pg | MEAN CORPUSCULAR HEMOGLOBIN CONCENTRATION [2]: 38.43 G/DL | MEAN CORPUSCULAR VOLUME [2]: 62.28 fL | MONOCYTE [2]: 1.17% | NEUTROPHIL [2]: 9.17% | NUCLEATED RED BLOOD CELLS [2]: 0.17 /100WBC | PLATELET COUNT [2]: 1198 x10E3/uL | ALANINE AMINOTRANSFERASE [2]: 51 u/L | ALBUMIN [2]: 4.3 G/DL | ALKALINE PHOSPHATASE [2]: 343 u/L | ASPARTATE AMINOTRANSFERASE [2]: 89.83 u/L | BLOOD UREA NITROGEN [2]: 17.67 mg/dL | CARBON DIOXIDE [2]: 27.17 mmol/L | CHLORIDE [2]: 98.33 MEQ/L | CHOLESTEROL [2]: 82.5 mg/dL | CREATINE PHOSPHOKINASE [2]: 533.33 u/L | CREATININE [2]: 0.18 mg/dL | GLUCOSE [2]: 152.67 mg/dL | LACTATE DEHYDROGENASE [2]: 220.33 u/L | LIPASE [2]: 11.5 u/L | PHOSPHORUS [2]: 11.25 mg/dL | POTASSIUM [2]: 6.29 MEQ/L | SODIUM [2]: 140.53 MEQ/L | TOTAL BILIRUBIN [2]: 0.22 mg/dL | TOTAL PROTEIN [2]: 6.12 G/DL | URIC ACID [2]: 1.42 mg/dL | ABSOLUTE BASOPHIL [3]: 0 CELLS/uL | ABSOLUTE EOSINOPHIL [3]: 0 CELLS/uL | ABSOLUTE LYMPHOCYTE [3]: 9283.33 CELLS/uL | ABSOLUTE MONOCYTE [3]: 29.33 CELLS/uL | ABSOLUTE SEGMENTED NEUTROPHIL [3]: 1254 CELLS/uL | BASOPHIL [3]: 0% | EOSINOPHIL [3]: 0% | ERYTHROCYTE COUNT [3]: 5.36 x10E6/uL | HEMATOCRIT [3]: 32.73% | HEMOGLOBIN [3]: 13 G/DL | LEUKOCYTE COUNT [3]: 10.57 x10E3/uL | LYMPHOCYTE [3]: 87.67% | MEAN CORPUSCULAR HEMOGLOBIN [3]: 24.3 pg | MEAN CORPUSCULAR HEMOGLOBIN CONCENTRATION [3]: 39.73 G/DL | MEAN CORPUSCULAR VOLUME [3]: 61.17 fL | MONOCYTE [3]: 0.33% | NEUTROPHIL [3]: 12% | NUCLEATED RED BLOOD CELLS [3]: 0 /100WBC | PLATELET COUNT [3]: 1056.33 x10E3/uL | ALANINE AMINOTRANSFERASE [3]: 64.33 u/L | ALBUMIN [3]: 3.87 G/DL | ALKALINE PHOSPHATASE [3]: 326.33 u/L | ASPARTATE AMINOTRANSFERASE [3]: 98.67 u/L | BLOOD UREA NITROGEN [3]: 14.33 mg/dL | CARBON DIOXIDE [3]: 30 mmol/L | CHLORIDE [3]: 99 MEQ/L | CHOLESTEROL [3]: 78.33 mg/dL | CREATINE PHOSPHOKINASE [3]: 446 u/L | CREATININE [3]: 0.19 mg/dL | GLUCOSE [3]: 155 mg/dL | LACTATE DEHYDROGENASE [3]: 214 u/L | LIPASE [3]: 10.67 u/L | PHOSPHORUS [3]: 11.53 mg/dL | POTASSIUM [3]: 5.92 MEQ/L | SODIUM [3]: 142 MEQ/L | TOTAL BILIRUBIN [3]: 0.17 mg/dL | TOTAL PROTEIN [3]: 5.57 G/DL
